These results are taken from patent US9643967B2, “Pyrrolo[3,2-c]pyridine derivatives as TLR inhibitors” (TAKEDA PHARMACEUTICAL COMPANY LIMITED, priority 2013, dated 2017).

Each structure is given as a SMILES string. Where two headings read alike, the source gives them in different places.

This test deals with T1, mTLR7 (Mus musculus, UniProt P58681).
T1 construct: Splenocytes isolated from male C57/BL6 mice; from tissue; host or cells: splenocytes from the spleen of male C57BL/6 mice
T1 sequence (P58681 27-1050): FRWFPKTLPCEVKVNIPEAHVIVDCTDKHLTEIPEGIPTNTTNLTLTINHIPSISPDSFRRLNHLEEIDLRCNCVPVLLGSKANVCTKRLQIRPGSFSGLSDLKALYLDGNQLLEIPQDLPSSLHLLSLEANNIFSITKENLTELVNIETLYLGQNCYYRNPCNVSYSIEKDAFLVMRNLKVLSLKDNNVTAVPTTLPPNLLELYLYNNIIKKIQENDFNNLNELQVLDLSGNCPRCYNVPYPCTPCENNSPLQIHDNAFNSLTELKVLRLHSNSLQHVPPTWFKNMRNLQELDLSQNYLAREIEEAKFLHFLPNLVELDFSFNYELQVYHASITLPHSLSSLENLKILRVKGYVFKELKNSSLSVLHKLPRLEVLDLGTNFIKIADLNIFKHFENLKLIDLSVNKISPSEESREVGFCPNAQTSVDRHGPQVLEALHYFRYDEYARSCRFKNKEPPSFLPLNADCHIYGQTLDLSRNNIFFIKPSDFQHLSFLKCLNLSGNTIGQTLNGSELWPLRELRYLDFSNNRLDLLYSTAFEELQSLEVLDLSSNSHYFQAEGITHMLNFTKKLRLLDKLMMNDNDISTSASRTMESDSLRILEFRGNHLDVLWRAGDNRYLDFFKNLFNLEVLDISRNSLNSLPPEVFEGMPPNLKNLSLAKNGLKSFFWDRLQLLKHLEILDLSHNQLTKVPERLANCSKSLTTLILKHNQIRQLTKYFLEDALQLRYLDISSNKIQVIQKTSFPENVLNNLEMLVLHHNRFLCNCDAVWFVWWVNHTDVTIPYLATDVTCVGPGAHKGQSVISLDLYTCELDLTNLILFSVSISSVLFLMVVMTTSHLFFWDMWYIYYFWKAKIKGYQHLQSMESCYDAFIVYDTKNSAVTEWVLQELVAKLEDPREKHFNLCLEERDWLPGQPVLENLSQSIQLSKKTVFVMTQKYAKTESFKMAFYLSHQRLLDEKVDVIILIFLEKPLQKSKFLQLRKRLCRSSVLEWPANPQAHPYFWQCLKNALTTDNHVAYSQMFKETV
Put plainly: mTLR7 antagonism (IL-6 and TNF-α release assay) in mouse splenocytes, R0006/DOTAP stimulated. It is filed as cell-based. The conditions noted are these: 1 μM, mouse splenocytes. From the text:
mTLR9 and mTLR7 Antagonism (Cytokine Release Assay) in Mouse Splenocytes
TLR7 ligand R0006 (IDT, 5′-rU*rU*rG*rU*rU*rG*rU*rU*rG*rU*rU*rG*rU*rU*rG*rU*rU*rG*rU*rU-3′ (SEQ ID NO:1)), Liposomal transfection reagent—DOTAP (Roche, Cat. No. 11202375001), TLR9 ligand CpG ODN2006 (Sequence: T*C*G*T*C*G*T*T*T*T*G*T*C*G*T*T*T*T*G*T*C*G*T*T; *=phosphorothioate (SEQ ID NO:2)) DMSO (Sigma, D2650), RPMI Powder (Sigma, R6504), Fetal Bovine Serum (Gibco, 10270), Dulbecco's Phosphate Buffered Saline (Sigma, D1408), 96 well plate (Flat bottom, Costar 3599), ELISA kit for IL-6 (EBioscience, 88-7064-77 and TNFa (EBioscience, 88-7346-88), MACS Buffer (AutoMACS Rinsing Solution (Miltenyl Biotec, 130-091-222)+0.05% BSA), RBC lysis buffer (0.85% NH4Cl), 40 μm cell strainer (BD Falcon, 352340) Method: A. Isolation of Mouse Splenocytes
Mouse spleen was isolated from C57BL6 mouse and stored in 1× chilled PBS buffer until further processed. Spleen was transferred to a sterile petriplate and chopped in to 5-6 pieces in presence of MACS buffer (100 μl) with the help of fresh surgical blade and crushed with flat plunger of a sterile syringe. A uniform suspension was prepared by passing cells through a 40 μm cell strainer. Cells were centrifuged at 450×g for 5 minutes at 4° C., supernatant was discarded and pellet dislodged gently, resuspended in 2 ml of pre-warmed (37° C.) RBC lysis buffer at room temperature with continuous gentle mixing with 1 ml pipette. Lysis buffer was neutralized with 12 ml of chilled MACS buffer and cells were passed through 40 μm cell strainer. Cell suspension was collected in 15 ml MACS buffer and centrifuged at 450×g for 5 minutes at 4° C. Pellet was resuspended in 15 ml MACS buffer and centrifuged at 400×g for 5 minutes. Cells were resuspended in 10 ml of RPMI complete medium and viability was estimated by Trypan blue method.
mTLR7 Antagonism (IL-6 and TNF-α Release Assay):
1 mg/ml stock of R0006 was prepared in sterile, endotoxin-free water. R0006 stock was diluted 10 fold with DOTAP and incubated for 30 minutes to form liposome complex (100 μg/ml of R0006). This complex was further diluted 10 fold with incomplete RPMI media (10 μg/ml of R0006) to achieve the final agonist concentration of 1 μg/ml. DOTAP alone was diluted 10 fold in incomplete RPMI media. NCEs were added in a concentration range of 30 μM to 1 nM in respective wells of assay plate, assay medium containing 0.3% DMSO were added to control wells. 0.2 million splenocytes were added to all the wells and incubated at 37° C. in 5% CO2 incubator for 30 minutes. 1 μg/ml of respective agonist was added to all the wells except those were assigned as negative controls and mixed thoroughly. DOTAP was added to negative control wells and incubated overnight at 37° C./5% CO2. The plate was centrifuged at 450×g for 5 minutes at room temperature and the supernatant was collected. ELISA was performed as per manufacturer's protocol. S/B Ratio, % Activity and % Inhibition was calculated using MS Excel. IC50 and inhibition curve was generated using Graph Pad Prism.

Where [1] appears, read: TNF-α release, read-out: mTLR7 inhibitory activity (% at 1 μM), TNF-α.
The mark [2] stands for this setting: IL-6 release, read-out: mTLR7 inhibitory activity (% at 1 μM), IL-6.

On to `CC(C)N1CCN(c2ccc(-c3nccc4[nH]c(CCCN5CCOCC5)cc34)cc2)CC1` [Example C1, 4-[3-[4-[4-(4-isopropylpiperazin-1-yl)phenyl]-1H-pyrrolo[3,2-c]pyridin-2-yl]propyl]morpholine], for which the inhibition at 1 µM under setting [1] was 100%.

`CN1CCN(c2ccc(-c3nccc4[nH]c(CCN5CCOCC5)cc34)cc2)CC1` [Example B2, 4-[2-[4-[4-(4-methylpiperazin-1-yl)phenyl]-1H-pyrrolo[3,2-c]pyridin-2-yl]ethyl]morpholine]: the inhibition at 1 µM turned out to be 100% under setting [2] and 100% under setting [1].

`COc1cc(N2CCN(C(C)C)CC2)ccc1-c1nc(C)cc2c1cc(CCN1CCOCC1)n2C` [Example B20, 4-[2-[4-[4-(4-isopropylpiperazin-1-yl)-2-methoxy-phenyl]-1,6-dimethyl-pyrrolo[3,2-c]pyridin-2-yl]ethyl]morpholine]: the inhibition at 1 µM is, setting by setting: under setting [2], 70%; under setting [1], 57%. For the compound `CC(C)N1CCN(c2ccc(-c3nccc4[nH]c(CCN5CCOCC5)cc34)cc2)CC1` [Example B1, 4-[2-[4-[4-(4-isopropylpiperazin-1-yl)phenyl]-1H-pyrrolo[3,2-c]pyridin-2-yl]ethyl]morpholine], the inhibition at 1 µM runs as follows: under setting [2], 100%; under setting [1], 100%. As to `Cc1cc2[nH]c(CN3CCOCC3)cc2c(-c2ccc(N3CCN(C(C)C)CC3)cc2)n1` [Example A4, 4-[[4-[4-[4-isopropylpiperazin-1-yl)phenyl]-6-methyl-1H-pyrrolo[3,2-c]pyridin-2-yl]methyl] morpholine], the inhibition at 1 µM is, setting by setting: under setting [2], 100%; under setting [1], 100%. Take `Cc1cc2c(cc(CCN3CCOCC3)n2C)c(-c2ccc(N3CCN(C(C)C)CC3)c(C)c2)n1` [Example B16, 4-[2-[4-[4-(4-isopropylpiperazin-1-yl)-3-methyl-phenyl]-1,6-dimethyl-pyrrolo[3,2-c]pyridin-2-yl]ethyl]morpholine]: the inhibition at 1 µM by setting is: under setting [2], 100%; under setting [1], 100%. Take `Cc1cc2c(cc(CCN3CCOCC3)n2C)c(-c2ccc(N3CCN(C(C)C)CC3)c(C(F)(F)F)c2)n1` [Example B18, 4-[2-[4-[4-(4-isopropylpiperazin-1-yl)-3-(trifluoromethyl)phenyl]-1,6-dimethyl-pyrrolo[3,2-c]pyridin-2-yl]ethyl]morpholine]: the inhibition at 1 µM under setting [2] amounted to 100% and the inhibition at 1 µM under setting [1] amounted to 100%.

Turning to `CN1CCN(c2ccc(-c3nccc4[nH]c(CN5CCC(F)CC5)cc34)cc2)CC1` [Example A25, 2-[(4-fluoro-1-piperidyl)methyl]-4-[4-(4-methylpiperazin-1-yl)phenyl] - 1H-pyrrolo[3,2-c]pyridine], the inhibition at 1 µM is 100% under setting [2] and 100% under setting [1]. Consider `c1cc2[nH]c(CN3CCOCC3)cc2c(-c2ccc(OC3CCNCC3)cc2)n1` [Example A49, 4-[[4-[4-(4-piperidyloxy)phenyl]-1H-pyrrolo[3,2-c]pyridin-2-yl]methyl]morpholine], for which the inhibition at 1 µM is 2% under setting [2] and 3% under setting [1].

`Cc1cc2c(cc(CCN3CCOCC3)n2C)c(-c2ccc(N3CCN(C(C)C)CC3)c(F)c2)n1` [Example B14, 4-[2-[4-[3-fluoro-4-(4-isopropylpiperazin-1-yl)phenyl]-1,6-dimethyl-pyrrolo[3,2-c]pyridin-2-yl]ethyl]morpholine]: the inhibition at 1 µM runs as follows: under setting [2], 100%; under setting [1], 100%. `Cc1cc2[nH]c(CCN3CCCCC3)cc2c(-c2ccc(N3CCN(C(C)C)CC3)cc2)n1` [Example B5, 4-[4-(4-isopropylpiperazin-1-yl)phenyl]-6-methyl-2-[2-(1-piperidyl)ethyl]-1H-pyrrolo[3,2-c]pyridine]: under setting [1], the inhibition at 1 µM turned out to be 100%. In the case of `CC(C)N1CCN(c2ccc(-c3nccc4[nH]c(CN5CCC[C@@H]5C(=O)O)cc34)cc2)CC1` [Example A74, (2R)-1-[[4-[4-(4-isopropylpiperazin-1-yl)phenyl]-1H-pyrrolo[3,2-c]pyridin-2-yl]methyl]pyrrolidine-2-carboxylic acid], under setting [1], the inhibition at 1 µM was found to be 32%. Consider `CC(C)N1CC=C(c2ccc(-c3nccc4[nH]c(CN5CCOCC5)cc34)cn2)CC1` [Example A52, 4-[[4-[6-(1-isopropyl-3,6-dihydro-2H-pyridin-4-yl)-3-pyridyl]-1H-pyrrolo[3,2-c]pyridin-2-yl]methyl]morpholine], for which the inhibition at 1 µM runs as follows: under setting [2], 71%; under setting [1], 10%. In the case of `Cc1nc(-c2ccc(N3CCN(C)CC3)cc2)c2cc(CCN3CCOCC3)[nH]c2c1C` [Example B7, 4-[2-[6,7-dimethyl-4-[4-(4-methylpiperazin-1-yl)phenyl]-1H-pyrrolo[3,2-c]pyridin-2-yl]ethyl]morpholine], the inhibition at 1 µM under setting [1] was 100%. Regarding `CCN1CCN(c2ccc(-c3nc(C)c(C)c4[nH]c(CCN5CCOCC5)cc34)cc2)CC1` [Example B8, 4-[2-[4-[4-(4-ethylpiperazin-1-yl)phenyl]-6,7-dimethyl-1H-pyrrolo[3,2-c]pyridin-2-yl]ethyl]morpholine], the inhibition at 1 µM under setting [1] came out at 88%. `Cc1nc(-c2ccc(N3CCN(C(C)C)CC3)cc2)c2cc(CN3CCCCC3)[nH]c2c1C` [Example A39, 4-[4-(4-isopropylpiperazin-1-yl)phenyl]-6,7-dimethyl-2-(1-piperidylmethyl)-1H-pyrrolo[3,2-c]pyridine]: the inhibition at 1 µM under setting [1] is 100%. As to `Cc1cc2c(cc(CCN3CCOCC3)n2C)c(-c2ccc(N3CCN(C(C)C)CC3)cc2C(F)(F)F)n1` [Example B17, 4-[2-[4-[4-(4-isopropylpiperazin-1-yl)-2-(trifluoromethyl)phenyl]-1,6-dimethyl-pyrrolo[3,2-c]pyridin-2-yl]ethyl]morpholine], the inhibition at 1 µM is, setting by setting: under setting [2], 93%; under setting [1], 90%. For the compound `CN1CCN(c2ccc(-c3nccc4[nH]c(CN5CCOCC5)cc34)cc2)CC1` [Example A2, 4-[[4-[4-(4-methylpiperazin-1-yl)phenyl]-1H-pyrrolo[3,2-c]pyridin-2-yl]methyl] morpholine], the inhibition at 1 µM under setting [2] turned out to be 90% and the inhibition at 1 µM under setting [1] worked out at 100%.
